Measurements taken from publication PMC2869246 (Antiviral research, 2010).
Entries after “also recorded” stand apart in the source; their conditions may differ. Read-outs that look alike come from different tables or passages of the source.

Experiments:
[1] = ref Reddy et al., 2008; cited from earlier work
[2] = Cytotoxicity by neutral red dye uptake in HepG2.2.15 cultures; assay type: cell-based; settings: human, HepG2.2.15 cells
HBV [3] = experiment: HBV antiviral assay in HepG2.2.15 cells; assay type: cell-based, hepatitis B virus; settings: for effect of addition of 10uM mevalonate on anti-HBV effect: 10uM mevalonate added
HepG2.2.15 = experiment: Cytotoxicity by neutral red dye uptake in HepG2.2.15 cultures; assay type: cell-based; settings: Table 2; monotherapy; neutral red uptake 24 hours after last treatment
HBV [4] = settings: cited from earlier work; for anti-HBV activity: unpublished results
HBV surface antigen = settings: Hep3B cell line with integrated S gene coding region; ref Lin et al., 2003; cited from earlier work
[5] = Hepatitis B virus, HepG2.2.15, Table 2 (separate experiment), monotherapy
[6] = Table 2 (separate experiment), monotherapy

Nc1ncnc2c1ncn2CCOCP(=O)(O)O [ADV, adefovir]
liver/serum ratios [1]: 0.38

Nc1ccn([C@@H]2CS[C@H](CO)O2)c(=O)n1 [LMV, lamivudine]
CC50 at 9 days [2]: 2320 ± 102 µM
effect of addition of 10uM mevalonate on anti-HBV effect (HBV [3]): did not affect the anti-HBV effectiveness; also recorded: nor did it reduce the anti-HBV effectiveness
EC50 (HBV [3]; [5]): 0.048 ± 0.005 µM
EC90 (HBV [3]; [5]): 0.146 ± 0.017 µM

CC(O)(CCO)CC(=O)O (stereo not drawn) [Mevalonate]
CC50 (HepG2.2.15): > 10 µM
EC50 (HBV [3]; [6]): > 10 µM
EC90 (HBV [3]; [6]): > 10 µM
anti-HBV effect (HBV [3]; monotherapy): did not display an anti-HBV effect

CCC(C)(C)C(=O)O[C@H]1C[C@@H](C)C=C2C=C[C@H](C)[C@H](CC[C@@H]3C[C@@H](O)CC(=O)O3)[C@H]21 [SIM, simvastatin]
CC50 at 9 days [2]: > 300 µM
effect of addition of 10uM mevalonate on anti-HBV effect (HBV [3]): abolished the anti-HBV effect; also recorded: abolished the anti-HBV effectiveness
EC50 (HBV [3]; [5]): 2.8 ± 0.3 µM
EC90 (HBV [3]; [5]): 8.1 ± 0.7 µM
ED90 (HBV [3]; SIM alone, cell culture): 8.6 µM

CC(C)n1c(/C=C/C(O)CC(O)CC(=O)O)c(-c2ccc(F)cc2)c2ccccc21 (stereo not drawn) [fluvastatin]
anti-HBV activity (HBV [4]; ref Korba): unable to make other statins work against HBV

CC[C@H](C)C(=O)O[C@H]1C[C@@H](C)C=C2C=C[C@H](C)[C@H](CC[C@@H]3C[C@@H](O)CC(=O)O3)[C@H]21 [lovastatin]
in vitro production of surface antigen inhibited (HBV surface antigen): 60%
anti-HBV activity (HBV virions in cell culture) (HBV [4]; ref Lin et al., 2003): unable to make other statins work against HBV; also recorded: could not demonstrate reduction of HBV virions

CC[C@H](C)C(=O)O[C@H]1C[C@H](O)C=C2C=C[C@H](C)[C@H](CC[C@@H](O)C[C@@H](O)CC(=O)O)[C@H]21 [pravastatin]
anti-HBV activity (HBV [4]; ref Bader): unable to make other statins work against HBV
